{"source": "patent US6632921B1", "about": "“Seryl-lysyl-based peptide and peptidomimetic inhibitors of N-myristoyl transferase as anti-infective agents” (G. D Searle & Co, priority 1995, dated 2003)", "assay_in_all_cases": "Antifungal susceptibility testing, pH 7.0/35° C., 1x10^3 cells/mL", "key": {"C. albicans 516": {"tested_on": "C. albicans 516", "type": "cell-based, Candida albicans", "method": "(§1) 2) Assay at pH 7.0/35° C. Incubation/(Candida Strains Only).\n(§2) Based on several papers published during 1990-1993 regarding the standardization of testing procedures at multiple research centers, and the finding that, inoculum size, pH of media, and the temperature of incubation drastically affect the antifungal activity of several compounds, particularly in the Azole class of antifungals, an additional assay was configured at pH 7.0 for Candida albicans. [M. A. Pfaller et al, Antimicrobial Agents and Chemotherapy, 34, 1648-1654 (1990); F. C. Odds et al, Antimicrobial Agents and Chemotherapy, 36, 1727-1737 (1992); R. A. Cook et al, Antimicrobial Agents and Chemotherapy, 34, 1542-1545 (1990)]\n(§3) The assay format is identical to the first one with the following modifications: C.albicans cells are diluted to 1×10^3 cells/ml into 2× buffered YNB (YNB buffered with 1.65 mM MOPS, pH 7.0, with the addition of 2% Dextrose and 0.08% casamino acids mixture, bio 101. inc,cat #10420-100). Incubation is carried out at 35° C. instead of 30° C., and cell growth is monitored at 590 nm at 24 and 48 hrs as described. All other aspects of the assay are identical. This assay was validated with amphotericin B, fluconazole, cilofungin (Ly-121019), Nikkomycin and terbinafine using the following Candida strains- (C.albicans, B311, C.parasilosis, C.tropicalis, C.lusitaniae, C.glabrata, and C. albicans 516)-Table II. All strains were from Dr. Kobayashi, Washington university."}, "C.tropicalis": {"tested_on": "C.tropicalis", "type": "cell-based", "settings": "Candida tropicalis", "method": "as §1, §2, §3"}, "C.parasilosis": {"tested_on": "C.parasilosis", "type": "cell-based", "method": "as §1, §2, §3"}, "C.albicans, B311": {"tested_on": "C.albicans, B311", "type": "cell-based", "settings": "Candida albicans", "method": "as §1, §2, §3"}, "C.glabrata": {"tested_on": "C.glabrata", "type": "cell-based", "settings": "Nakaseomyces glabratus", "method": "as §1, §2, §3"}, "C.lusitaniae": {"tested_on": "C.lusitaniae", "type": "cell-based", "settings": "Clavispora lusitaniae", "method": "as §1, §2, §3"}, "[1]": {"settings": "Candida albicans, 516, pH 7.0/35° C./1x10^3 cells/mL, 48 hrs, read-out: EC50 - 48 HRS C.albicans (516)"}, "[2]": {"settings": "pH 7.0/35° C./1x10^3 cells/mL, 48 hrs, read-out: EC50 - 48 HRS C.trop."}, "[3]": {"settings": "pH 7.0/35° C./1x10^3 cells/mL, 48 hrs, read-out: EC50 - 48 HRS C.para"}, "[4]": {"settings": "B311, pH 7.0/35° C./1x10^3 cells/mL, 48 hrs, read-out: EC50 - 48 HRS C.albicans"}, "[5]": {"settings": "pH 7.0/35° C./1x10^3 cells/mL, 48 hrs, read-out: EC50 - 48 HRS C.glab."}, "[6]": {"settings": "pH 7.0/35° C./1x10^3 cells/mL, 48 hrs, read-out: EC50 - 48 HRS C.lusi."}}, "note": "Where two headings read alike, the source gives them in different places. Starred links: 1 amine or outer side, 2 acyl side, 3 side chain; linkers in the order of their positions; H or OH if unused. Positions of bridges follow the written chain, without caps; N, C: chain ends. Non-standard residues stand in square brackets, D forms with d. Residues, ends and D or L forms follow the SMILES beside them. *: point of attachment. Orn(4R-OH,5R-OH) = O=C([C@H](C[C@@H](O)[C@@H](O)N[*:3])N[*:1])[*:2]; hTyr(3S-OH,4S-OH) = N[C@H](C(=O)O)[C@H](O)[C@@H](O)c1ccc(O)cc1; Pro(3S-OH,4S-Me) = C[C@H]1CN[C@H](C(=O)O)[C@H]1O; Benzoyl(4-octyloxy) = CCCCCCCCOc1ccc(C(=O)*)cc1; Hyp = O=C(O)[C@@H]1C[C@@H](O)CN1"}
{"smiles": "C[C@@H]([C@H](N)C(=O)N[C@H](C(=O)O)[C@H]1O[C@@H](n2ccc(=O)[nH]c2=O)[C@H](O)[C@@H]1O)[C@H](O)c1ccc(O)cn1", "note": "[Nikkomycin]", "values": [{"measurement": "EC50", "setting": "C. albicans 516; Candida albicans, 516, pH 7, read-out: EC50 - 48 HRS C.albicans (516)", "value": 11, "unit": "µM"}, {"measurement": "EC50", "setting": "C.tropicalis; pH 7, read-out: EC50 - 48 HRS C.trop.", "value": "> 100000", "unit": "nM"}, {"measurement": "EC50", "setting": "C.parasilosis; pH 7, read-out: EC50 - 48 HRS C.para", "value": 13, "unit": "µM"}, {"measurement": "EC50", "setting": "C.albicans, B311; B311, pH 7, read-out: EC50 - 48 HRS C.albicans", "value": 4500, "unit": "nM"}, {"measurement": "EC50", "setting": "C.glabrata; pH 7, read-out: EC50 - 48 HRS C.glab.", "value": "> 100", "unit": "µM"}, {"measurement": "EC50", "setting": "C.lusitaniae; pH 7, read-out: EC50 - 48 HRS C.lusi.", "value": 28, "unit": "µM"}]}
{"smiles": "OC(Cn1cncn1)(Cn1cncn1)c1ccc(F)cc1F", "note": "[Fluconazole, fluconazole]", "values": [{"measurement": "EC50", "setting": "C. albicans 516; [1]", "value": 0.65, "unit": "µg/mL"}, {"measurement": "EC50", "setting": "C.tropicalis; [2]", "value": 2.6, "unit": "µg/mL"}, {"measurement": "EC50", "setting": "C.parasilosis; [3]", "value": 0.91, "unit": "µg/mL"}, {"measurement": "EC50", "setting": "C.albicans, B311; [4]", "value": 0.71, "unit": "µg/mL"}, {"measurement": "EC50", "setting": "C.glabrata; [5]", "value": 26, "unit": "µg/mL"}, {"measurement": "EC50", "setting": "C.lusitaniae; [6]", "value": 0.6, "unit": "µg/mL"}]}
{"smiles": "CCCCCCCCOc1ccc(C(=O)N[C@H]2C[C@@H](O)[C@@H](O)NC(=O)[C@@H]3[C@@H](O)[C@@H](C)CN3C(=O)[C@H]([C@@H](C)O)NC(=O)[C@H]([C@H](O)[C@@H](O)c3ccc(O)cc3)NC(=O)[C@@H]3C[C@@H](O)CN3C(=O)[C@H]([C@@H](C)O)NC2=O)cc1", "note": "[Ly 12109, cilofungin] ({Benzoyl(4-octyloxy)}-[Orn(4R-OH,5R-OH)]T[Hyp][hTyr(3S-OH,4S-OH)]T[Pro(3S-OH,4S-Me)]; lactam 1-C)", "values": [{"measurement": "EC50", "setting": "C. albicans 516; [1]", "value": 0.6, "unit": "µM"}, {"measurement": "EC50", "setting": "C.tropicalis; [2]", "value": 600, "unit": "nM"}, {"measurement": "EC50", "setting": "C.parasilosis; [3]", "value": 32, "unit": "µM"}, {"measurement": "EC50", "setting": "C.albicans, B311; [4]", "value": 600, "unit": "nM"}, {"measurement": "EC50", "setting": "C.glabrata; [5]", "value": 6.1, "unit": "µM"}, {"measurement": "EC50", "setting": "C.lusitaniae; [6]", "value": 6.6, "unit": "µM"}]}
{"smiles": "C[C@@H]1[C@H](O)[C@@H](C)/C=C/C=C/C=C/C=C/C=C/C=C/C=C/[C@H](O[C@@H]2O[C@H](C)[C@@H](O)[C@H](N)[C@@H]2O)C[C@@H]2O[C@](O)(C[C@@H](O)C[C@@H](O)[C@H](O)CC[C@@H](O)C[C@@H](O)CC(=O)O[C@H]1C)C[C@H](O)[C@H]2C(=O)O", "note": "[Amphotericin, amphotericin B]", "values": [{"measurement": "EC50", "setting": "C. albicans 516; [1]", "value": 0.14, "unit": "µg/mL"}, {"measurement": "EC50", "setting": "C.tropicalis; [2]", "value": 0.44, "unit": "µg/mL"}, {"measurement": "EC50", "setting": "C.parasilosis; [3]", "value": 0.31, "unit": "µg/mL"}, {"measurement": "EC50", "setting": "C.albicans, B311; [4]", "value": 0.11, "unit": "µg/mL"}, {"measurement": "EC50", "setting": "C.glabrata; [5]", "value": 0.47, "unit": "µg/mL"}, {"measurement": "EC50", "setting": "C.lusitaniae; [6]", "value": 0.42, "unit": "µg/mL"}]}
